In publication PMC6680510, “Benzotriazine Di-Oxide Prodrugs for Exploiting Hypoxia and Low Extracellular pH in Tumors” (Molecules, 2019):
Where “and” joins values, the source holds several entries; their conditions need not be identical. Identical values can stand only once. Like-named read-outs stand apart in the source and are kept apart here.

Columns and labels:
SiHa cells [1] = assay: IC50 assay modified for chronic hypoxia (oxia, hypoxia, anoxia); assay type: cell-based; conditions: for IC50: Homo sapiens
Description: There are relatively few viable cells in tumors at O2 concentrations as low as in the above anoxic experiments. In addition, extensive changes in gene expression occur under chronic exposure to intermediate O2 concentrations (chronic hypoxia), including the expression of proteins that regulate pHi. […] Therefore, oxic and anoxic exposures were also tested in these same experiments. The 24 h adaptation to hypoxia had little effect on the subsequent growth of the cultures at either pHe value (Figure S6).
To minimize problems with poor cell attachment under chronic hypoxia, the drugs were added from a 3-fold dilution series made in a separate plate, rather than by serial dilution in the plates containing the cells. In addition, the drugs were removed after the 4 h exposure by centrifuging the plates (200g × 5 min) prior to each aspiration. The same modifications were used for the oxic drug exposures in these experiments.

FaDu cells = assay: IC50 assay (inhibition of proliferation, 4 h exposure, SRB); assay type: cell-based; conditions: for IC50: Homo sapiens, 4 h
SiHa cells [2] = assay: as above; conditions: SiHa; for IC50: Homo sapiens, 4 h
Description: (§1) Cells were seeded in 96-well plates (SiHa or FaDu 1500 cells/well, UT-SCC-74B 800 cells/well) in 100 μL. After incubation for 2 h, the drugs were added in 50 μL of the same titrated medium at 3× the final concentration to duplicate the wells. After a further 4 h the plates were checked for drug precipitation using a phase contrast microscope, then drugs were removed by aspirating and washing with the standard (pH 7.4) medium, then aspirating again and adding 150 μL of the medium. Cultures were then grown for 5 days before staining with sulphorhodamine B and measuring absorbance, with the estimation of IC50 values using 4-parameter logistic regression, as previously carried out.
The medium and plasticware was equilibrated in the chamber for 3 days prior to use. In the anoxia experiments, FaDu cells were plated in poly-L-lysine coated plates (Corning Cat # 356461) to improve attachment.
Cells were subsequently grown under standard cell culture conditions (oxia, pHe 7.4) for 5 days before staining with sulforhodamine B (SRB). […] (B) SN30000 (2). (C) BTO acid 4a. Values are means and errors are ranges for duplicate cultures in a single experiment. Fitted curves are 4-parameter logistic regressions. PCR = pH cytotoxicity ratio. ACR = anoxia cytotoxicity ratio. TMR = tumor microenvironment ratio.

UT-SCC-74B cells = assay: as above; assay type: cell-based; conditions: for IC50: Homo sapiens, 4 h; for IC50 / PCR Anoxic (IC50 at pHe 7.4/IC50 at pHe 6.5) / PCR oxic (IC50 at pHe 7.4/IC50 at pHe 6.5): UT-SCC-74B
Description: as §1
The medium and plasticware was equilibrated in the chamber for 3 days prior to use. In the anoxia experiments, FaDu cells were plated in poly-L-lysine coated plates (Corning Cat # 356461) to improve attachment. […]
Footnotes: a Number of experiments. b Anoxic cytotoxicity ratio = oxic IC50/anoxic IC50. c pH
cytotoxicity ratio = IC50 at pHe 7.4/ IC50 at pHe 6.5. d Overall ratio = oxic IC50 pHe 7.4 / anoxic IC50 pHe
6.5. Values are means and errors are SEM. For ratios, the errors are root mean square SEM. […]

[3] = Solubility in AlphaMEM + 5% FBS, pH 7.4; conditions: culture medium (AlphaMEM + 5% FBS), pH 7.4, plasma or biological fluid
[4] = pHe 6.5, 4 h, anoxic, read-out: Anoxic IC50
[5] = pHe 6.5, 4 h, oxic, read-out: Oxic IC50
[6] = pHe 7.4, 4 h, anoxic, read-out: Anoxic IC50
[7] = pHe 7.4, 4 h, oxic, read-out: Oxic IC50
[8] = read-out: Anoxic IC50, SiHa, pHe 6.5, 4 h, anoxic
[9] = read-out: Anoxic IC50, SiHa, pHe 7.4, 4 h, anoxic
[10] = read-out: Oxic IC50, SiHa, pHe 6.5, 4 h, oxic
[11] = read-out: Oxic IC50, SiHa, pHe 7.4, 4 h, oxic

O=C(O)CCCc1ccc(N(CCCl)CCCl)cc1 [Compound 1, chlorambucil]
PCR (IC50 for pHe 7.4/IC50 for pHe 6.5) (SiHa cells [1]; 0.2% O2): 9.9 ± 2.8 | PCR (IC50 for pHe 7.4/IC50 for pHe 6.5) (SiHa cells [1]; 20% O2): 6.5 ± 2.0 | PCR (IC50 for pHe 7.4/IC50 for pHe 6.5) (SiHa cells [1]; <0.01% O2): 7.40 ± 1.64 | IC50 (SiHa cells [1]; 0.2% O2 (24 h before and during 4 h exposure), pHe 6.5): 1.75 ± 0.44 µM | IC50 (SiHa cells [1]; 0.2% O2 (24 h before and during 4 h exposure), pHe 7.4): 17.3 ± 2.53 µM | IC50 (SiHa cells [1]; 4 h, 20% O2, pHe 6.5, 4 h): 1.84 ± 0.48 µM | IC50 (SiHa cells [1]; 4 h, 20% O2, pHe 7.4, 4 h): 12 ± 2 µM | IC50 (SiHa cells [1]; 4 h, <0.01% O2, pHe 6.5, 4 h): 1.49 ± 0.18 µM | IC50 (SiHa cells [1]; 4 h, <0.01% O2, pHe 7.4, 4 h): 11 ± 2.1 µM | ACR (IC50 for 20% O2/IC50 for <0.01% O2) (SiHa cells [1]; pHe 6.5): 1.23 ± 0.34 | HCR (IC50 for 20% O2/IC50 for 0.2% O2) (SiHa cells [1]; pHe 6.5): 1.05 ± 0.38 | ACR (IC50 for 20% O2/IC50 for <0.01% O2) (SiHa cells [1]; pHe 7.4): 1.09 ± 0.27 | HCR (IC50 for 20% O2/IC50 for 0.2% O2) (SiHa cells [1]; pHe 7.4): 0.69 ± 0.15 | IC50 (FaDu cells; [4]): 2.26 ± 0.37 µM | IC50 (FaDu cells; [5]): 3.19 ± 0.78 µM | IC50 (FaDu cells; [6]): 13.1 ± 8.7 µM | IC50 (FaDu cells; [7]): 15 ± 1.6 µM | IC50 (SiHa cells [2]; [8]): 3.78 ± 1.51 µM | IC50 (SiHa cells [2]; [9]): 13.6 ± 1.1 µM | IC50 (SiHa cells [2]; [10]): 1.58 ± 0.27 µM | IC50 (SiHa cells [2]; [11]): 12.7 ± 1.2 µM | ACR (oxic IC50/anoxic IC50) (UT-SCC-74B cells): 1.26 ± 0.20 and 0.94 ±0.21 | IC50 (UT-SCC-74B cells; pHe 6.5, 4 h, 20% O2, read-out: Oxic IC50): 0.8 ± 0.17 µM | IC50 (UT-SCC-74B cells; pHe 6.5, 4 h, <0.01% O2, read-out: Anoxic IC50): 0.85 ± 0.06 µM | IC50 (UT-SCC-74B cells; pHe 7.4, 4 h, 20% O2, read-out: Oxic IC50): 6.34 ± 0.88 µM | IC50 (UT-SCC-74B cells; pHe 7.4, 4 h, <0.01% O2, read-out: Anoxic IC50): 5.05 ± 0.38 µM | PCR Anoxic (IC50 at pHe 7.4/IC50 at pHe 6.5) (UT-SCC-74B cells; listed as CHL): 5.9 | PCR Anoxic (IC50 at pHe 7.4/IC50 at pHe 6.5) (UT-SCC-74B cells; listed as CHL (1)): 5.94 ± 0.61 | PCR oxic (IC50 at pHe 7.4/IC50 at pHe 6.5) (UT-SCC-74B cells; listed as CHL): 7.9 | PCR oxic (IC50 at pHe 7.4/IC50 at pHe 6.5) (UT-SCC-74B cells; listed as CHL (1)): 7.93 ± 2.01

CCOC(=O)CCCNc1n[n+]([O-])c2ccccc2[n+]1[O-] [Compound 11b, 3-((4-Ethoxy-4-oxobutyl)amino)benzo[e][1,2,4]triazine 1,4-Dioxide]
TMR (oxic IC50 pHe 7.4/anoxic IC50 pHe 6.5) (FaDu cells): 10.1 ± 3.0 | IC50 (FaDu cells; [4]): 36.3 ± 4.8 µM | IC50 (FaDu cells; [5]): 274 ± 210 µM | IC50 (FaDu cells; [6]): 29 ± 2 µM | IC50 (FaDu cells; [7]): 368 ± 98 µM | PCR Anoxic (IC50 at pHe 7.4/IC50 at pHe 6.5) (FaDu cells; anoxic): 0.80 ± 0.12 | PCR oxic (IC50 at pHe 7.4/IC50 at pHe 6.5) (FaDu cells; oxic): 1.34 ± 1.09 | ACR (oxic IC50/anoxic IC50) (FaDu cells; pHe 6.5): 7.55 ± 5.87 | ACR (oxic IC50/anoxic IC50) (FaDu cells; pHe 7.4): 12.7 ± 3.5 | solubility ([3]; kinetic from dmso stock): 1400 µM | IC50 (SiHa cells [2]; [8]): 4.36 ± 0.56 µM | IC50 (SiHa cells [2]; [9]): 3.55 ± 0.7 µM | IC50 (SiHa cells [2]; [10]): 13.2 ± 0.9 µM | IC50 (SiHa cells [2]; [11]): 14.5 ± 0.6 µM | TMR (overall TME ratio = oxic IC50 pHe 7.4/anoxic IC50 pHe 6.5) (SiHa cells [2]): 3.32 ± 0.45 | PCR Anoxic (IC50 at pHe 7.4/IC50 at pHe 6.5) (SiHa cells [2]): 0.81 ± 0.19 | PCR oxic (IC50 at pHe 7.4/IC50 at pHe 6.5) (SiHa cells [2]): 1.10 ± 0.09 | ACR (anoxic cytotoxicity ratio = oxic IC50/anoxic IC50) (SiHa cells [2]; pHe 6.5): 3.04 ±0.44 | ACR (anoxic cytotoxicity ratio = oxic IC50/anoxic IC50) (SiHa cells [2]; pHe 7.4): 4.08 ±0.82

CCOC(=O)CNc1n[n+]([O-])c2ccccc2[n+]1[O-] [Compound 8b, Ethyl [(1,4-Dioxido-1,2,4-benzotriazin-3-yl)amino]acetate]
TMR (oxic IC50 pHe 7.4/anoxic IC50 pHe 6.5) (FaDu cells): 11.2 ± 2.9 | IC50 (FaDu cells; [4]): 8.55 ± 1.92 µM | IC50 (FaDu cells; [5]): 76.1 ± 17.9 µM | IC50 (FaDu cells; [6]): 5.25 ± 1.18 µM | IC50 (FaDu cells; [7]): 102 ± 9 µM | PCR Anoxic (IC50 at pHe 7.4/IC50 at pHe 6.5) (FaDu cells; anoxic): 0.61 ± 0.02 | PCR oxic (IC50 at pHe 7.4/IC50 at pHe 6.5) (FaDu cells; oxic): 1.34 ± 0.33 | ACR (oxic IC50/anoxic IC50) (FaDu cells; pHe 6.5): 8.89 ± 2.89 | ACR (oxic IC50/anoxic IC50) (FaDu cells; pHe 7.4): 19.3 ± 4.7 | solubility ([3]; thermodynamic from solid): 8600 µM | IC50 (SiHa cells [2]; [8]): 2.5 ± 0.87 µM | IC50 (SiHa cells [2]; [9]): 1.2 ± 0.35 µM | IC50 (SiHa cells [2]; [10]): 21.6 ± 5.7 µM | IC50 (SiHa cells [2]; [11]): 35.3 ± 3.1 µM | TMR (overall TME ratio = oxic IC50 pHe 7.4/anoxic IC50 pHe 6.5) (SiHa cells [2]): 14.1 ± 5.1 | PCR Anoxic (IC50 at pHe 7.4/IC50 at pHe 6.5) (SiHa cells [2]): 0.48 ± 0.22 | PCR oxic (IC50 at pHe 7.4/IC50 at pHe 6.5) (SiHa cells [2]): 1.63 ± 0.45 | ACR (anoxic cytotoxicity ratio = oxic IC50/anoxic IC50) (SiHa cells [2]; pHe 6.5): 8.6 ± 3.8 | ACR (anoxic cytotoxicity ratio = oxic IC50/anoxic IC50) (SiHa cells [2]; pHe 7.4): 29.4 ± 8.9

COC(=O)CCc1n[n+]([O-])c2cc3c(cc2[n+]1[O-])CCC3 [Compound 7b, 3-(3-Methoxy-3-oxopropyl)-7,8-dihydro-6H-indeno[5,6-e][1,2,4]triazine 1,4-Dioxide]
melting point: 170 to 171 °C | TMR (oxic IC50 pHe 7.4/anoxic IC50 pHe 6.5) (FaDu cells): >10 | IC50 (FaDu cells; [4]): 20 ± 5.4 µM | IC50 (FaDu cells; [5]): 157 ± 28 µM | IC50 (FaDu cells; [6]): 11.5 ± 2.2 µM | IC50 (FaDu cells; [7]): > 200 µM | PCR Anoxic (IC50 at pHe 7.4/IC50 at pHe 6.5) (FaDu cells; anoxic): 0.58 ± 0.19 | PCR oxic (IC50 at pHe 7.4/IC50 at pHe 6.5) (FaDu cells; oxic): >1.2 | ACR (oxic IC50/anoxic IC50) (FaDu cells; pHe 6.5): 7.84 ± 2.56 | ACR (oxic IC50/anoxic IC50) (FaDu cells; pHe 7.4): >17 | solubility ([3]; thermodynamic from solid): 280 µM | IC50 (SiHa cells [2]; [8]): 15.1 ± 3.1 µM | IC50 (SiHa cells [2]; [9]): 7.3 ± 1.6 µM | IC50 (SiHa cells [2]; [10]): 195 ± 22 µM | IC50 (SiHa cells [2]; [11]): > 200 µM | TMR (overall TME ratio = oxic IC50 pHe 7.4/anoxic IC50 pHe 6.5) (SiHa cells [2]): >13 | PCR Anoxic (IC50 at pHe 7.4/IC50 at pHe 6.5) (SiHa cells [2]): 0.48 ± 0.15 | PCR oxic (IC50 at pHe 7.4/IC50 at pHe 6.5) (SiHa cells [2]): >1 | ACR (anoxic cytotoxicity ratio = oxic IC50/anoxic IC50) (SiHa cells [2]; pHe 6.5): 13.0 ± 3.0 | ACR (anoxic cytotoxicity ratio = oxic IC50/anoxic IC50) (SiHa cells [2]; pHe 7.4): >27

CCOC(=O)CCCNc1n[n+]([O-])c2cc(C)ccc2[n+]1[O-] [Compound 12b, 3-((4-Ethoxy-4-oxobutyl)amino)-7-methylbenzo[e][1,2,4]triazine 1,4-Dioxide]
melting point: 191 to 192 °C | solubility ([3]; kinetic from dmso stock): 160 µM
